# What was measured:
# [1] = test system: BMSC (primary human bone marrow mesenchymal stromal cells); test: absolute EC50 for viability; higher = less sensitive
# [2] = test system: BMSC (primary human bone marrow mesenchymal stromal cells); test: drug sensitivity score (DSS); higher = more sensitive
Structure (SMILES),absolute EC50 for viability [1] [µM],drug sensitivity score [2]
CC1(COc2ccc3c(c2)ncn3-c2ccc3cccc(N4CCC(N)CC4)c3n2)COC1 [Crenolanib],1.84,8.5
CNc1ncc2cc(-c3cc(NC(=O)NCCC(C)(C)C)c(F)cc3C)c(C)nc2n1,> 10,6.2
Nc1nc(Cl)nc2c1ncn2[C@@H]1O[C@H](CO)[C@@H](O)[C@@H]1F [Clofarabine],0.739,11.4
NC(=O)c1cccc2cn(-c3ccc([C@@H]4CCCNC4)cc3)nc12 [Niraparib],> 10,0.8
CN(c1ncccc1CNc1nc(Nc2ccc3c(c2)CC(=O)N3)ncc1C(F)(F)F)S(C)(=O)=O,> 10,3.2
O=c1[nH]c(=O)n([C@H]2C[C@H](O)[C@@H](CO)O2)cc1C(F)(F)F [Trifluridine],> 10,0
COc1cc2nccc(Oc3ccc(NC(=O)NC4CC4)c(Cl)c3)c2cc1C(N)=O [Lenvatinib],> 2.5,5.2
Cc1cn(-c2cc(NC(=O)c3ccc(C)c(Nc4nccc(-c5cnccn5)n4)c3)cc(C(F)(F)F)c2)cn1 [Radotinib],> 10,0
CCN(CC)CCOc1ccc(C(=C(Cl)c2ccccc2)c2ccccc2)cc1 [Clomifene],> 10,0.9
CNC(=O)c1ccccc1Nc1nc(Nc2ccc3c(c2OC)CCC[C@H](N2CCN(CCO)CC2)C3)ncc1Cl,1.17,6.6
CO[C@@H](C(=O)N1Cc2[nH]nc(NC(=O)c3ccc(N4CCN(C)CC4)cc3)c2C1)c1ccccc1 [Danusertib],> 10,3.6
Cc1ccc(C(=O)Nc2ccc(Oc3cc4cnn(C)c4cc3-c3cn[nH]c3)c(F)c2)c(=O)n1-c1ccc(F)cc1 [Merestinib],> 1,1.4
CC(C)(C)Cn1c(N)nc2ccc(-c3[nH]c(C(C)(C)C)nc3-c3ccc(F)cc3)nc21 [Ralimetinib],> 10,0.7
CNC(=O)[C@@H](NC(=O)[C@H](CC(C)C)[C@H](O)C(=O)NO)C(C)(C)C [Marimastat],> 10,0
COC(=O)c1ccc2c(c1)[nH]c1ncnc(NCCCN3CCCCC3)c12 [UM729],> 10,3.3
CC(C)Oc1ccc(-c2nn([C@@H](C)c3oc4ccc(F)cc4c(=O)c3-c3cccc(F)c3)c3ncnc(N)c23)cc1F [TGR-1202],> 2.5,0
Nc1nc2cc(-c3ccc4ncc(C(=O)N5CCOCC5)n4c3)ccc2o1 [Serabelisib],> 10,3.3
COc1cccc2c1C(=O)c1c(O)c3c(c(O)c1C2=O)C[C@@](O)(/C(CO)=N/NC(=O)CCCCCN1C(=O)C=CC1=O)C[C@@H]3O[C@H]1C[C@H](N)[C@H](O)[C@H](C)O1 [Aldoxorubicin],0.945,7.3
Nc1nccc(-c2c(-c3ccc(F)cc3)ncn2C2CCCCC2)n1,> 10,0.3
CC(=O)O[C@@]12CO[C@@H]1C[C@H](O)[C@@]1(C)C(=O)[C@H](O)C3=C(C)[C@@H](OC(=O)[C@H](O)[C@@H](NC(=O)OC(C)(C)C)c4ccccc4)C[C@@](O)([C@@H](OC(=O)c4ccccc4)[C@H]21)C3(C)C [Docetaxel],> 1,5

Structure (SMILES),absolute EC50 for viability [1] [µM],drug sensitivity score [2]
C[C@H]1Oc2cc(cnc2N)-c2c(nn(C)c2C#N)CN(C)C(=O)c2ccc(F)cc21,> 1,0.2
CONC(=O)c1ccccc1Nc1cc(Nc2cc(C)nn2C(C)C)ncc1Cl,> 1,0.1
O=C(/C=C/c1cccnc1)NCCCCC1CCN(C(=O)c2ccccc2)CC1 [Daporinad],> 1,0.2
Cc1cc(F)c(C(=O)Nc2cccc(-c3nncn3C(C)C)n2)cc1-n1cnc(C2CC2)c1 [Selonsertib],> 1,0
O=C(c1ccc(F)c(F)c1Nc1ccc(I)cc1F)N1CC(O)([C@@H]2CCCCN2)C1 [Cobimetinib],> 1,4.3
CCN1C(=O)CNc2ncc(-c3ccc(-c4nc[nH]n4)nc3C)nc21 [CC-115],2.86,6.9
O=C(NCc1ccncc1)C12CC3CC(C1)CC(c1ccc(Cl)cc1)(C3)C2,> 50,3.3
Cc1nc(Nc2n[nH]c3c2CN(C(=O)N[C@H](CN(C)C)c2ccccc2)C3(C)C)c2sccc2n1,2.86,7.4
FC(F)(F)c1ccc(CNc2ccc(Cc3c[nH]c4ncc(Cl)cc34)cn2)cn1 [Pexidartinib],> 10,3.6
Cn1cc(C[C@@H](N)C(=O)O)c2ccccc21 [1-methyl-D-tryptophan],> 5,0
O=C(O)c1ccc(CN2CCC(CN[C@@H]3C[C@H]3c3ccccc3)CC2)cc1,> 100,0
NCC(=O)Nc1ccc(-n2nc(C(F)(F)F)cc2-c2ccc3c(ccc4ccccc43)c2)cc1,> 25,0.5
Nc1nc(Nc2ccc3c(c2)CC[C@@H](N2CCCC2)CC3)nn1-c1cc2c(nn1)-c1ccccc1CCC2 [BGB324],2.49,6.7
COc1cc2c(Oc3ccc4[nH]c(C)cc4c3F)ncnc2cc1OCCCN1CCCC1 [Cediranib],> 1,2.5
C[C@H]1CNCCCN1S(=O)(=O)c1cccc2cncc(F)c12 [Ripasudil],> 10,1.1
Cc1ccccc1CN1C(=O)C2=C(CCN(Cc3ccccc3)C2)N2CCN=C12 [TIC10],> 25,3.8
C[C@H]1CN(C2COC2)CCN1c1ccc(Nc2cc(-c3ccnc(N4CCn5c(cc6c5CC(C)(C)C6)C4=O)c3CO)cn(C)c2=O)nc1 [GDC-0853],> 1,0
CC(=O)O[C@H]1C(=O)[C@@]2(C)[C@H]([C@H](OC(=O)c3ccccc3)[C@]3(O)C[C@H](OC(=O)[C@H](O)[C@@H](NC(=O)c4ccccc4)c4ccccc4)C(C)=C1C3(C)C)[C@]1(OC(C)=O)CO[C@@H]1C[C@@H]2O [Paclitaxel],> 1,2.7
Nc1ncn([C@H]2C[C@H](O)[C@@H](CO)O2)c(=O)n1 [Decitabine],> 10,0
CN1CCN(c2cc(C(=O)Nc3ccc4c(c3)-c3c(c(C(N)=O)nn3-c3ccc(F)cc3)CC4)c(Cl)cn2)CC1 [PHA 408],> 10,1.3

Structure (SMILES),absolute EC50 for viability [1] [µM],drug sensitivity score [2]
Cc1nc(Nc2ncc(C(=O)Nc3c(C)cccc3Cl)s2)cc(N2CCN(CCO)CC2)n1 [Dasatinib],0.132,9.2
CCC1(c2ccc(N)cc2)CCC(=O)NC1=O (stereo not drawn) [Aminoglutethimide],> 10,0
Nc1cc(COc2c(Cl)cc(C[C@H](N)C(=O)O)cc2Cl)c2oc(-c3ccccc3)nc2c1 [JPH203],> 5,0
CC1(N)CCN(c2cnc(-c3cccc(Cl)c3Cl)c(N)n2)CC1 [NVP-SHP099],> 10,0
COc1cc2c(NC3CCN(C(C)C)CC3)nc(N3CCC(F)(F)CC3)nc2cc1OCCCN1CCCC1 [UNC0642],3.38,5.2
CNC(=O)c1cc(COc2nnc(Nc3ccc(Cl)cc3)c3ccoc23)ccn1 [Telatinib],> 10,4.2
Cc1ccc(C(=O)Nc2ccc(CN3CCN(C)CC3)c(C(F)(F)F)c2)cc1C#Cc1cnc2cccnn12 [Ponatinib],> 1,4.6
c1ccc2n[se]nc2c1 [BCI],2.55,14.9
CS(=O)(=O)N1CCN(Cc2cc3nc(-c4cccc5[nH]ncc45)nc(N4CCOCC4)c3s2)CC1 [Pictilisib],1.28,11
CCN(CC)Cc1ccc2cc(COC(=O)Nc3ccc(C(=O)NO)cc3)ccc2c1 [Givinostat],> 1,3.6
COc1cc2nccc(Oc3ccc(NC(=O)C4(C(=O)Nc5ccc(F)cc5)CC4)cc3)c2cc1OC [Cabozantinib],> 1,3.6
CC(C)(C)c1nc(-c2cccc(NS(=O)(=O)c3c(F)cccc3F)c2F)c(-c2ccnc(N)n2)s1 [Dabrafenib],> 2.5,0
COc1cc(N2CCN(C)CC2)ccc1Nc1nccc(-c2cn(C)c3cnccc23)n1 [AZ191],2.71,8.1
COc1cccc2c1C(=O)c1c(O)c3c(c(O)c1C2=O)C[C@@](O)(C(=O)CO)C[C@@H]3O[C@H]1C[C@H](N)[C@H](O)[C@H](C)O1 [Doxorubicin],0.219,6.8
CCN(CC)CCCC(C)Nc1c2ccc(Cl)cc2nc2ccc(OC)cc12 (stereo not drawn) [Mepacrine],1.58,17.7
O=C1CN2Cc3c(ccc(Cl)c3Cl)N=C2N1 [Anagrelide],> 10,0
CC(C)n1cnc2c(NCCc3ccc(O)cc3)nc(-c3csc4ccccc34)nc21 [StemRegenin 1],> 10,0.4
Nc1cc(C(F)(F)F)c(-c2cc(N3CCOCC3)nc(N3CCOCC3)n2)cn1 [Buparlisib],2.11,7.8
C/C=C1\NC(=O)[C@H]2CSSCC/C=C/[C@H](CC(=O)N[C@H](C(C)C)C(=O)N2)OC(=O)[C@H](C(C)C)NC1=O [Romidepsin],0.0097,23.2
